Consider four compounds from patent US20100129432A1, “MICROORGANISM-KILLING COMBINATION” (TAIPEI MEDICAL UNIVERSITY, priority 2008, published 2010).

In experiment [1] the test system is Staphylococcus aureus (BCRC 10780). In words: Rose Bengal, Methylene Blue and Chlorin e6 mediated PDI with or without chitosan, survival fraction. It counts as cell-based.
For another experiment, the system named is Candida albicans. In words: Toluidine blue or Methylene Blue mediated PDI with or without 0.6% chitosan, survival fraction. The conditions noted are these: for PDI effect (survival fraction): 0.5 mM photosensitizer, 630±5 nm LED 50 J/cm^2, without chitosan; for survival fraction of Candida albicans: 0.6% (w/v) chitosan added after the PDI, 50 J/cm^2.

As for `O=C1OC2(c3cc(I)c(O)c(I)c3Oc3c2cc(I)c(O)c3I)c2c(Cl)c(Cl)c(Cl)c(Cl)c21` [RB, Rose Bengal], the “PDI effect (survival fraction)” value is listed as “complete removal of the bacteria” in experiment [1] (0.025 μM RB, 25 J/cm^2, 0.025% chitosan) and “not able to result in complete eradication” in experiment [1] (0.025 μM RB, 25 J/cm^2, without chitosan).
With `CN(C)c1ccc2nc3ccc(=[N+](C)C)cc-3sc2c1` [MB, methylene blue], the “PDI effect (survival fraction)” value in the experiment on Candida albicans is reported as “partially effective”; in experiment [1] (2 μM MB, 0 J/cm^2, without chitosan), “ineffective”; in experiment [1] (2 μM MB, 0.025% (w/v) chitosan) it was “significantly enhanced”; in experiment [1] (2 μM MB, 0.025% (w/v) chitosan, 10-20 J/cm^2), “complete eradication”; in experiment [1] (2 μM MB, 5 J/cm^2, without chitosan), “slightly effective”; in experiment [1] (2 μM MB, 10-20 J/cm^2, without chitosan), “apparently more effective than the lower dose”. For the same compound, in the experiment on Candida albicans, the “survival fraction of Candida albicans” value is “greatly reduced”.
In the case of `Cc1cc2nc3ccc(N(C)C)cc3[s+]c2cc1N.[Cl-]` [TB, toluidine blue], in the experiment on Candida albicans, the “PDI effect (survival fraction)” value is reported as “partially effective” and the “survival fraction of Candida albicans” value is “greatly reduced”.
For the compound chlorine e6 [Ce6], the “PDI effect (survival fraction)” value in experiment [1] (0.05 μM Ce6, 0.1% (w/v) chitosan, 10 J/cm^2) is on record as “complete eradication”. For the same compound, the “PDI bacterial killing effect” value in experiment [1] (0.05 μM Ce6 with chitosan, concentration dependent manner (0.01-0.1 μM)) was “significantly enhance”.
